Consider 18 molecules from PubChem BioAssay AID298 (DTP/NCI, 2004).

The structures appear in SMILES notation. “And” between values parts separate entries of the source, which are not always exact repeats. Identical values can stand only once. Results filed as inconclusive are left out.

In the test the test system is MX-1 breast xenograft, intrarenal, nude mice, tumor weight. As to the kind of experiment: NCI In Vivo Anticancer Drug Screen. Data for tumor model Human Mammary Carcinoma MX-1 Xenograft (intrarenal inoculation) in NU/NU BALB/C (nude) mice. The conditions noted are these: endpoint: mean tumor weight change, higher = larger tumour. An outline of the steps:
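Antitumor activity is expressed as a T/C ratio. The treated group's tumor size or survival is compared against the vehicle-treated control group in mice bearing transplanted tumors.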
(In general: A xenograft is tissue or cells of one species grown in another, often human tumour cells in immunodeficient mice.)

[1] abbreviates: dose: 100.0 mg/kg/injection, schedule: Q04DX003 (ip), vehicle: Klucel (hydroxypropylcellulose) (HPC).
Setting [2] is: dose: 200.0 mg/kg/injection, schedule: Q04DX003 (ip), vehicle: Klucel (hydroxypropylcellulose) (HPC).
Where [3] appears, read: dose: 50.0 mg/kg/injection, schedule: Q04DX003 (ip), vehicle: saline with Tween-80.
The mark [4] stands for this setting: dose: 100.0 mg/kg/injection, schedule: Q04DX003 (ip), vehicle: saline with Tween-80.
Setting [5] is: dose: 150.0 mg/kg/injection, schedule: Q04DX003 (ip), vehicle: DMSO.
The mark [6] stands for this setting: dose: 300.0 mg/kg/injection, schedule: Q04DX003 (ip), vehicle: DMSO.
Where [7] appears, read: dose: 600.0 mg/kg/injection, schedule: Q04DX003 (ip), vehicle: DMSO.
The mark [8] stands for this setting: dose: 200.0 mg/kg/injection, schedule: Q04DX003 (ip), vehicle: saline with Tween-80.

As for `CS(=O)(=O)OCCN(CCOS(C)(=O)=O)c1ccc(C=Nc2ccc(-c3csc(COc4ccccc4)n3)cc2)cc1`, the T/C runs as follows: (dose: 50.0 mg/kg/injection, schedule: Q01DX010 (sc), vehicle: Klucel (hydroxypropylcellulose) (HPC)) 13 % of control; (dose: 100.0 mg/kg/injection, schedule: Q01DX010 (sc), vehicle: Klucel (hydroxypropylcellulose) (HPC)) -6 % of control; under setting [1], 24 % of control; (dose: 100.0 mg/kg/injection, schedule: Q04DX003 (sc), vehicle: Klucel (hydroxypropylcellulose) (HPC)) 32 % of control; (dose: 200.0 mg/kg/injection, schedule: Q01DX010 (sc), vehicle: Klucel (hydroxypropylcellulose) (HPC)) -61 % of control; under setting [2], 3 % of control. In addition, the T/C (dose: 200.0 mg/kg/injection, schedule: Q04DX003 (sc), vehicle: Klucel (hydroxypropylcellulose) (HPC)) was 18 % of control.
In the case of `NC(=O)c1[nH]cnc1O`, the T/C was 96 % of control under setting [3]; 112 % of control and 119 % of control under setting [4]; 81 % of control (dose: 400.0 mg/kg/injection, schedule: Q04DX003 (ip), vehicle: saline with Tween-80); 69 % of control (dose: 800.0 mg/kg/injection, schedule: Q04DX003 (ip), vehicle: saline with Tween-80).
Consider `CN(C)c1ccc2c(Nc3ccc(NS(C)(=O)=O)cc3)c3ccc(N(C)C)cc3nc2c1`, for which the T/C is 115 % of control under setting [1] and 39 % of control under setting [2].
In the case of `c1ccc2c(c1)-c1ccccc1C1NC21` (stereo not drawn), the T/C is 60 % of control (dose: 37.5 mg/kg/injection, schedule: Q04DX003 (sc), vehicle: saline with Tween-80) and 30 % of control (dose: 75.0 mg/kg/injection, schedule: Q04DX003 (sc), vehicle: saline with Tween-80).
In the case of `CN(C)c1nc(N(C)C)[n+]([O-])c(N(C)C)n1`, the T/C (dose: 200.0 mg/kg/injection, schedule: Q01DX010 (ip), vehicle: water) was 83 % of control and the T/C (dose: 400.0 mg/kg/injection, schedule: Q01DX010 (ip), vehicle: water) was 107 % of control.
`O=c1n(CC2CO2)c(=O)n(CC2CO2)c(=O)n1CC1CO1` (stereo not drawn): the T/C (dose: 25.0 mg/kg/injection, schedule: Q01DX010 (sc), vehicle: saline) is 37 % of control; the T/C (dose: 25.0 mg/kg/injection, schedule: Q04DX003 (sc), vehicle: suspension in saline) was 18 % of control; the T/C (dose: 50.0 mg/kg/injection, schedule: Q04DX003 (sc), vehicle: suspension in saline) is -100 % of control.
On to `CC1(C)Nc2cc3c(cc2-n2cccc21)oc1ccccc13`, for which the T/C under setting [5] is 113 % of control; the T/C under setting [6] is 90 % of control; the T/C under setting [7] is 83 % of control; the T/C (dose: 1200.0 mg/kg/injection, schedule: Q04DX003 (ip), vehicle: DMSO) is 80 % of control.
As for `C/C(=N\NC(=S)N1CCN(c2ccccn2)CC1)c1ccccn1`, the T/C (dose: 75.0 mg/kg/injection, schedule: Q04DX003 (sc), vehicle: water) was 104 % of control.
Regarding `COc1ccc2c(c1)n([O-])c1ccccc1[n+]2=O`, the T/C under setting [3] was 40 % of control, the T/C under setting [4] was 48 % of control and the T/C under setting [8] is 36 % of control.
In the case of `NCCCNCCCCNC(=O)C(O)NC(=O)CC(O)CCCCN=C(N)N` (stereo not drawn), the T/C (dose: 12.5 mg/kg/injection, schedule: Q04DX003 (ip), vehicle: saline) is 100 % of control; the T/C (dose: 25.0 mg/kg/injection, schedule: Q04DX003 (ip), vehicle: saline) is 93 % of control; the T/C (dose: 50.0 mg/kg/injection, schedule: Q04DX003 (ip), vehicle: saline) was 29 % of control and 44 % of control; the T/C (dose: 100.0 mg/kg/injection, schedule: Q04DX003 (ip), vehicle: saline) is 53 % of control and 56 % of control.
Consider `CN(C)C(=O)Nc1ccc(Cl)cc1`, for which the T/C was 71 % of control (dose: 150.0 mg/kg/injection, schedule: Q04DX003 (ip), vehicle: suspension in saline); 98 % of control (dose: 300.0 mg/kg/injection, schedule: Q04DX003 (ip), vehicle: suspension in saline); 91 % of control (dose: 600.0 mg/kg/injection, schedule: Q04DX003 (ip), vehicle: suspension in saline).
With `CCC1(O)C(=O)OCc2c1cc1n(c2=O)Cc2cc3cc4c(cc3nc2-1)OCO4` (stereo not drawn), the T/C (dose: 4.0 mg/kg/injection, schedule: Q04DX003 (ip), vehicle: saline with Tween-80) is -100 % of control.
Turning to `Cc1ccc(C2NC(=O)c3ccccc3N2)s1` (stereo not drawn), the T/C by setting is: (dose: 600.0 mg/kg/injection, schedule: Q04DX003 (sc), vehicle: Klucel (hydroxypropylcellulose) (HPC)) 105 % of control; (dose: 1200.0 mg/kg/injection, schedule: Q04DX003 (sc), vehicle: Klucel (hydroxypropylcellulose) (HPC)) 106 % of control; (dose: 2400.0 mg/kg/injection, schedule: Q04DX003 (sc), vehicle: Klucel (hydroxypropylcellulose) (HPC)) 118 % of control; (dose: 4800.0 mg/kg/injection, schedule: Q04DX003 (sc), vehicle: Klucel (hydroxypropylcellulose) (HPC)) 97 % of control.
Regarding `CCCCCCCC(=O)OCC(=O)[C@]1(O)Cc2c(O)c3c(c(O)c2[C@@H](OC2CC(N)C(O)C(C)O2)C1)C(=O)c1c(OC)cccc1C3=O` (stereo partly drawn), the T/C (dose: 2.0 mg/kg/injection, schedule: Q01DX010 (ip), vehicle: suspension in saline) is 4 % of control; the T/C (dose: 2.0 mg/kg/injection, schedule: Q01DX010 (sc), vehicle: saline) is 121 % of control; the T/C (dose: 2.0 mg/kg/injection, schedule: Q04DX003 (ip), vehicle: saline) is 53 % of control; the T/C (dose: 4.0 mg/kg/injection, schedule: Q01DX010 (ip), vehicle: suspension in saline) is 5 % of control; the T/C (dose: 4.0 mg/kg/injection, schedule: Q01DX010 (sc), vehicle: saline) was 20 % of control; the T/C (dose: 4.0 mg/kg/injection, schedule: Q04DX003 (ip), vehicle: saline) was 27 % of control. Moreover, the T/C runs as follows: (dose: 8.0 mg/kg/injection, schedule: Q01DX010 (sc), vehicle: saline) 2 % of control; (dose: 8.0 mg/kg/injection, schedule: Q04DX003 (ip), vehicle: saline) 5 % of control.
As to `O=C(O)[C@H](Cc1ccccc1)N1C(=O)c2ccccc2C1=O`, the T/C is, setting by setting: under setting [5], 77 % of control; under setting [6], 60 % of control; under setting [7], 33 % of control.
Turning to `COc1cc2c(c3c1c(=O)c1cccc(F)c1n3C)C=CC(C)(C)O2`, for the setting “dose: 75.0 mg/kg/injection, schedule: Q04DX003 (ip), vehicle: Klucel (hydroxypropylcellulose) (HPC)”, the T/C was 46 % of control.
Take `O=C1c2ccccc2C(=O)c2c1cn1c2Cc2ccccc2C1`: the T/C runs as follows: (dose: 50.0 mg/kg/injection, schedule: Q04DX003 (ip), vehicle: Klucel (hydroxypropylcellulose) (HPC)) 72 % of control; under setting [1], 37 % of control; under setting [2], 26 % of control; (dose: 400.0 mg/kg/injection, schedule: Q04DX003 (ip), vehicle: Klucel (hydroxypropylcellulose) (HPC)) 35 % of control.
Turning to `Cc1nc2c(N)cc(Cl)cc2[nH]1`, the T/C by setting is: under setting [4], 95 % of control; under setting [8], 45 % of control.
